Experimental data: PMC2063203, “The renal effects of the water-soluble, non-folylpolyglutamate synthetase-dependent thymidylate synthase inhibitor ZD9331 in mice” (British Journal of Cancer, 1998)
Values joined by “and” are separate entries in the source; they are usually repeats but may differ in a detail not shown here. Equal values may be shown once. Read-outs that look alike come from different tables or passages of the source.

Test: Plasma pharmacokinetics of ZD9331 (HPLC, non-compartmental)
Format: in vivo, mice
Conditions: for AUC(0-t): read-out: AUC0-8h; for concentration at 4 h: read-out: plasma drug concentration at 4 h; for Cmax / Tmax: mouse
Description: British Journal of Cancer (1998) 78(11), 1457-1463 ? […] In contrast to Tomudex (ZD1694), ZD9331 may therefore be active against tumours with low FPGS activity. […] In view of the history of renal toxicity with some earlier TS inhibitors and the possible therapeutic use of bolus ZD9331, we have examined the effects of bolus ZD9331 dose and route of administration on plasma and kidney pharmacokinetics and renal function in mice. Renal function was assessed by measuring [14C]inulin clearance, and drug concentrations were assayed by reverse-phase high-performance liquid chromatography (HPLC). […] Kidney drug concentrations were slightly elevated in iv.- versus i.p.-treated animals at the low dose (50 mg kg-'), with a correspondingly larger area under the curve. However, at the highest dose (200 mg kg-'), peak kidney drug concentrations were 20-fold higher following i.v. administration than after i.p., with marked kidney retention, resulting in a 50-fold greater kidney drug exposure for the i.v. versus the i.p. route. […] These adverse effects can be readily overcome by i.p. administration, indicating the likely need for short infusions in clinical settings. […] Early studies established that nephrotoxicity may be a result of poor aqueous solubility of 2-amino compounds such as CB3717, and it was shown that 2-desamino CB3717 was more water soluble and less nephrotoxic (Jones et al, 1989; 1996). […] These polyglutamate forms also exibit intra- cellular retention, which may contribute to toxicity as well as anti- tumour activity. […] Such compounds might be expected to show activity in a different spectrum of tumours from ZD1694 and to have a more manageable toxicity profile because of the lack of retained cyto- toxic metabolites. […] MATERIALS AND METHODS Drug administration and animals The compound ZD933 1 (Figure 1) was provided as a white crystalline salt. ['4C]inulin was provided as a carboxylic acid (Amersham, UK, 250 µCi in 5 ml, specific activity 6.6 mCi mmol-') and diluted to an activity of 5 µCi ml-' in phosphate-buffered saline (PBS). ZD9331 was dissolved in 0.05 M sodium bicarbonate, 1457 1458 Ml Walton et al ~~ N Ny~~~14COOHH 0 H IN H N CH ~~~~H , 4 H3C N3 H Figure 1 The chemical structure of ZD9331 adjusted to pH 9.0 and administered either i.v. via the tail vein or i.p. at 0.01 ml g-' mouse body weight. [14C]inulin was administered at 0.05 gCi g-' (i.e. 0.01 ml g-') i.v. via the tail vein. Adult female DBA-2 mice were obtained from OLAC (Bicester, UK) and used at 8-12 weeks of age at a body weight of 15-25 g. Mice were housed in cages containing untreated sawdust and allowed access to food and water ad libitum. Sample preparation Plasma and tissue samples were prepared using standard tech- niques (Walton et al, 1996). Briefly, whole blood was obtained by cardiac puncture into heparinized syringes from halothane- anaesthetized mice. Plasma was prepared by centrifugation at 12 000 r.p.m. x 2 min in a bench-top microcentrifuge. Kidney and liver tissues were rapidly removed, washed and snap frozen on dry ice. Frozen plasma and tissues were stored at -20?C for up to 4 weeks prior to analysis. Individual samples were thawed on ice and handled rapidly. ZD9331 was extracted from whole plasma or tissue homogenates (33% w/v in 0.1 M Tris, pH 10.0) by the addition of an equal volume of acetonitrile, mixing and centrifugation and the super- natant removed for injection into the HPLC system. Samples were diluted with Tris buffer (0.1 M, pH 10.0) on to the linear part of the calibration curve prior to HPLC analysis. Extraction efficiencies were >95%. HPLC analysis Concentrations of ZD9331 were measured in biological samples using reversed phase HPLC on equipment supplied by Kontron (Watford, UK). Separations were carried out using stainless-steel columns heated at 45?C and packed with C18 Supelcosil ODS (10 cm x 4.6 mm, 5 µm bead size, Sigma, Dorset) and protected with NewGuard C18 columns (Anachem, Luton, UK). […]

[1] = female, ip, plasma, DBA-2 mice, 50 mg kg-1 i.p.
[2] = female, ip, plasma, DBA-2 mice, 200 mg kg-1 i.p.
[3] = female, iv, plasma, DBA-2 mice, 50 mg kg-1 i.v. bolus
[4] = female, iv, plasma, DBA-2 mice, 100 mg kg-1 i.v. bolus
[5] = female, iv, plasma, DBA-2 mice, 200 mg kg-1 i.v. bolus

## C#CCN(Cc1cc2c(=O)[nH]c(C)nc2cc1C)c1ccc(C(=O)N[C@@H](CCc2nnn[nH]2)C(=O)O)c(F)c1 [ZD9331, (2S)-2-{O-fluoro-p-(N-(2,7-dimethyl-4-oxo-3,4-dihydroquinazolin-6-ylmethyl)-N-(prop-2-ynyl)amino}benzamido}-4-(tetrazol-5-yl)butyric acid]
50 mg kg-1
  peak plasma concentration i.p. as % of i.v.: 11%
200 mg kg-1
  peak plasma concentration i.p. as % of i.v.: 25%
female, DBA-2, mouse, plasma, ip, 50 mg/kg, plasma, DBA-2 mice, 50 mg kg-1 i.p.
  AUC(0-t): 90.1 µM·h
female, DBA-2, mouse, plasma, ip, 50 mg/kg, plasma, DBA-2 mice, 50 mg kg-1 i.p., read-out: t1/2
  half-life: 93.4 min
female, DBA-2, mouse, plasma, ip, 200 mg/kg, plasma, DBA-2 mice, 200 mg kg-1 i.p.
  AUC(0-t): 315 µM·h
female, DBA-2, mouse, plasma, ip, 200 mg/kg, plasma, DBA-2 mice, 200 mg kg-1 i.p., read-out: t1/2
  half-life: 99 min
female, DBA-2, mouse, plasma, ip, 50 mg kg-1, read-out: i.p. bioavailability
  bioavailability: 80%
female, DBA-2, mouse, plasma, ip, 50 mg kg-1 i.p.
  concentration at 4 h: 1000 nM
female, DBA-2, mouse, plasma, ip, 200 mg kg-1 i.p.
  concentration at 4 h: 1860 nM
female, DBA-2, mouse, plasma, iv, 50 mg/kg, plasma, DBA-2 mice, 50 mg kg-1 i.v. bolus
  AUC(0-t): 75.3 µM·h
female, DBA-2, mouse, plasma, iv, 50 mg/kg, plasma, DBA-2 mice, 50 mg kg-1 i.v. bolus, read-out: t1/2 (apparent terminal elimination)
  half-life: 57 min
female, DBA-2, mouse, plasma, iv, 100 mg/kg, plasma, DBA-2 mice, 100 mg kg-1 i.v. bolus
  AUC(0-t): 109 µM·h
female, DBA-2, mouse, plasma, iv, 100 mg/kg, plasma, DBA-2 mice, 100 mg kg-1 i.v. bolus, read-out: t1/2
  half-life: 91.7 min
female, DBA-2, mouse, plasma, iv, 200 mg/kg, plasma, DBA-2 mice, 200 mg kg-1 i.v. bolus
  AUC(0-t): 332 µM·h
female, DBA-2, mouse, plasma, iv, 200 mg/kg, plasma, DBA-2 mice, 200 mg kg-1 i.v. bolus, read-out: t1/2
  half-life: 64.5 min
female, DBA-2, mouse, plasma, iv, 50 mg kg-1 i.v.
  concentration at 4 h: 1100 nM
female, DBA-2, mouse, plasma, iv, 100 mg kg-1 i.v., read-out: plasma drug concentration at 2 min
  concentration at 2 min: 898000 nM
female, DBA-2, mouse, plasma, iv, 100 mg kg-1 i.v., read-out: plasma drug concentration at 5 min
  concentration at 5 min: 771000 nM
female, DBA-2, mouse, plasma, iv, 200 mg kg-1 i.v.
  concentration at 4 h: 1300 nM
[1]
  Cmax: 74100 ng/mL and 139 µM
  Tmax: 10 min
[2]
  Cmax: 483000 ng/mL and 906 µM
  Tmax: 10 min
[3]
  Cmax: 696000 ng/mL and 1.31 mM
  Tmax: 1 min
[4]
  Cmax: 708000 ng/mL and 1.32 mM
  Tmax: 1 min
[5]
  Cmax: 1.9e+06 ng/mL and 3.63 mM
  Tmax: 1 min
i.p., range 0-200 mg kg-1
  relation of plasma drug exposure (AUC) to dose: linearly related to dose
i.v., up to 200 mg kg-1
  relation of plasma drug exposure (AUC) to dose: marked deviation from linearity at the highest dose
plasma, 50 mg kg-1 i.v.
  peak plasma concentration: 1.3 mM
plasma, 200 mg kg-1
  i.p. AUC0-8h as % of i.v.: 63%
plasma, DBA-2 mice, 50 mg kg-1 i.v. bolus
  t1/2 (apparent terminal elimination): 57.7 min
